# Publication PMC12621043, “Un-LOK-ing a New Approach for Conformational Selective Targeting of STK10 (LOK)” (ACS Medicinal Chemistry Letters, 2025)
# Target: T1, RIOK1A (Homo sapiens, UniProt Q9BRS2)
# T1 construct: purchased in-house DSF kinase panel (SGC-style construct names; the trailing letter is the construct ID)
# T1 sequence (Q9BRS2 143-494): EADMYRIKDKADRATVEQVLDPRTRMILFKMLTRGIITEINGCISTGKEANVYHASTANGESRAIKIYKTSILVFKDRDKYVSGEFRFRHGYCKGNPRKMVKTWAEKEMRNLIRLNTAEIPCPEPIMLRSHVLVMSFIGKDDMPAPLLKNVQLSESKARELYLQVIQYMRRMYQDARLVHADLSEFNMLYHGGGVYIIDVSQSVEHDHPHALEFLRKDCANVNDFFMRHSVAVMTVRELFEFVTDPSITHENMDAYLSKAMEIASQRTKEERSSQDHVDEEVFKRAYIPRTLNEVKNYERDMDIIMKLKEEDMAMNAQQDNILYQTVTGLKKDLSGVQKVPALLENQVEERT
# Test: DSF Tm panel
# Assay type: binding
# Settings: 10 μM compound
row,ΔTm at 10 µM [°C],Compound
1,1.1,O=C(NCc1ccc(Cl)cc1)Nc1ccc2cc1OCCOCCNc1ccn3ncc-2c3n1 [compound 19]
2,0.5,O=C(NCc1ccccc1Cl)Nc1ccc2cc1OCCOCCNc1ccn3ncc-2c3n1 [compound 17]
3,0.1,O=C(NCc1ccccc1)Nc1ccc2cc1OCCOCCNc1ccn3ncc-2c3n1 [compound 16]
4,1.4,O=C(NCc1cccc(Cl)c1)Nc1ccc2cc1OCCOCCNc1ccn3ncc-2c3n1 [compound 18]

# Further lines, the compound ahead of its results:
row,Compound,ΔTm at 10 µM [°C]
1,O=C(NCc1ccc(Cl)cc1F)Nc1ccc2cc1OCCOCCNc1ccn3ncc-2c3n1 [compound 21],-0.1
2,O=C(NCc1ccc(Cl)cc1Cl)Nc1ccc2cc1OCCOCCNc1ccn3ncc-2c3n1 [compound 20],1.9
3,CN1CCN(C(=O)Nc2ccc3cc2OCCOCCNc2ccn4ncc-3c4n2)CC1 [compound 35],1.2
4,Cc1cc(Cl)ccc1CNC(=O)Nc1ccc2cc1OCCOCCNc1ccn3ncc-2c3n1 [compound 23],0.6

# Target: T2, TIF1A (Homo sapiens, UniProt O15164)
# T2 construct: purchased in-house DSF kinase panel (SGC-style construct names; the trailing letter is the construct ID)
# T2 sequence (O15164 1-1050): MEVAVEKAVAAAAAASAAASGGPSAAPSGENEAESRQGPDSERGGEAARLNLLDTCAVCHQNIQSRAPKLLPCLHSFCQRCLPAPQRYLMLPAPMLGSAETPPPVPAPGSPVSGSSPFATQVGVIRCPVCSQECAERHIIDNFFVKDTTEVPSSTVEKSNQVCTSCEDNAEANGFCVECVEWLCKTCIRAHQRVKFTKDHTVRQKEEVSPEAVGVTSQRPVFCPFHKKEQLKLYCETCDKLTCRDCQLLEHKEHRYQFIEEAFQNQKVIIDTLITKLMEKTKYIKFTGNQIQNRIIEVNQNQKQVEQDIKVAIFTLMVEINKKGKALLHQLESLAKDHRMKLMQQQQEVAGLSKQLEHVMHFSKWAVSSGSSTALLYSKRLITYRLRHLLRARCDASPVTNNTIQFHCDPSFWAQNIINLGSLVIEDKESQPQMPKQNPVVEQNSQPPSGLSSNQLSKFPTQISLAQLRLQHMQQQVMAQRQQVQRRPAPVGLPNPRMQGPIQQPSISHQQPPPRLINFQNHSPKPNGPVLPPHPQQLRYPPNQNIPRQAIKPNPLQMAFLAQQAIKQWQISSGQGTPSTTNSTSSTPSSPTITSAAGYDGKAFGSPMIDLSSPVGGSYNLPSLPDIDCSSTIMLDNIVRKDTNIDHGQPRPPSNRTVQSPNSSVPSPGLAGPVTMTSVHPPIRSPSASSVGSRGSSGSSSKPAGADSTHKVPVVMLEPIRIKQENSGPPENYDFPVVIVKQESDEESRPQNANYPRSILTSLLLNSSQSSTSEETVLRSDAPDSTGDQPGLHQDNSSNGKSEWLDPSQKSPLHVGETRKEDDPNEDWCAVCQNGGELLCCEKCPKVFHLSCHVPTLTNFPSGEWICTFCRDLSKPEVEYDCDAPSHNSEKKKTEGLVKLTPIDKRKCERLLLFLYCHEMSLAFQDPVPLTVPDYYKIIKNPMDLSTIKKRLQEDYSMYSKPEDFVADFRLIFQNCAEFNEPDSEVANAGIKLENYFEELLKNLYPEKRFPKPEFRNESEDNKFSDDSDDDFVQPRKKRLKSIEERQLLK
# Test: DSF Tm panel
# Assay type: binding
# Settings: 10 μM compound
row,ΔTm at 10 µM [°C],Compound
1,0.5,COc1ccccc1CNC(=O)Nc1ccc2cc1OCCOCCNc1ccn3ncc-2c3n1 [compound 29]
2,-0.1,C[C@H](NC(=O)Nc1ccc2cc1OCCOCCNc1ccn3ncc-2c3n1)c1ccccc1 [compound 34]
3,0.3,COc1cccc(CNC(=O)Nc2ccc3cc2OCCOCCNc2ccn4ncc-3c4n2)c1 [compound 30]

# The remaining lines, values behind:
row,Compound,ΔTm at 10 µM [°C]
1,COc1cc(CNC(=O)Nc2ccc3cc2OCCOCCNc2ccn4ncc-3c4n2)ccc1F [compound 33],0.6
2,Cc1ccc(F)cc1CNC(=O)Nc1ccc2cc1OCCOCCNc1ccn3ncc-2c3n1 [compound 26],0.4
3,COc1ccc(CNC(=O)Nc2ccc3cc2OCCOCCNc2ccn4ncc-3c4n2)cc1F [compound 32],0.5
4,O=C(NCc1ccccc1C(F)(F)F)Nc1ccc2cc1OCCOCCNc1ccn3ncc-2c3n1 [compound 27],1.3
5,COc1ccc(CNC(=O)Nc2ccc3cc2OCCOCCNc2ccn4ncc-3c4n2)cc1 [compound 31],0.2
6,Cc1cc(Br)ccc1CNC(=O)Nc1ccc2cc1OCCOCCNc1ccn3ncc-2c3n1 [compound 24],1
7,O=C(NCc1ccc(C(F)(F)F)cc1)Nc1ccc2cc1OCCOCCNc1ccn3ncc-2c3n1 [compound 28],1.6
